In brackets after ≈: the same amount, converted by molar mass.
Conditions: buffer; pH 7.4; 200.0 µM
In the case of `O=C(O)c1ccc(NC(=S)NC(=O)c2cccnc2)cc1`, the solubility kinetic is reported as > 0.0452 mg/mL. In the case of `Cc1ccc(-c2cc(C(=O)N3CC4(C)CC3CC(C)(C)C4)no2)cc1` (stereo not given), the solubility kinetic is reported as < 0.0004 mg/mL. For `Cc1ccc(C(=O)Nc2ccc3c(c2)OCCO3)cc1`, the solubility kinetic was 0.0404 mg/mL (≈ 150 µM). `CCOc1ccc(N/C=C/C(=O)c2ccccc2)cc1` showed a solubility kinetic of 0.0008 mg/mL (≈ 2.99 µM). In the case of `CC(=O)N1CCC[C@H]1C(=O)O`, the solubility kinetic is reported as > 0.0236 mg/mL. With `CNC(=O)CCCN1C(=O)c2ccccc2Sc2ncccc21` the solubility kinetic was > 0.0491 mg/mL. In the case of `Nc1ccc(C(=O)[O-])c(O)c1.O.[Na+]`, the solubility kinetic is reported as > 0.0317 mg/mL. Work on `Cc1ccc(C)c(OCCCCN2CCCCC2)c1.O=C(O)C(=O)O` yielded a solubility kinetic of 0.0475 mg/mL. `CCOc1ccc2nc(SCC(=O)NCc3ccccc3)[nH]c2c1` gave a solubility kinetic of 0.0443 mg/mL (≈ 130 µM). For `COCCNC(=O)COC(=O)c1cccnc1SC`, the solubility kinetic was > 0.0426 mg/mL. For `CC(=O)c1ccc(NC(=O)COC(=O)C2CC3C=CC2C3)cc1` (stereo not given), the solubility kinetic was > 0.047 mg/mL. In the case of `CCOC(=O)c1sc(-c2cccs2)nc1C`, the solubility kinetic is reported as 0.0026 mg/mL (≈ 10.3 µM). With `N#Cc1cccc(C(=O)Nc2cccc(S(=O)(=O)N3CCCC3)c2)c1` the solubility kinetic was 0.0058 mg/mL (≈ 16.3 µM). `CCN(CC)S(=O)(=O)c1cccc(NC(=O)CC2CCCC2)c1` gave a solubility kinetic of 0.033 mg/mL (≈ 97.5 µM). With `Cc1ccc(S(=O)(=O)CCC(=O)Nc2sccc2C(N)=O)cc1` the solubility kinetic was > 0.0529 mg/mL. With `CCCn1c(=N)n(CC(O)c2ccc(C)cc2)c2ccccc21.Cl` (stereo not given) the solubility kinetic was > 0.0519 mg/mL. Compound `CC(=O)c1sc(-c2cccc(Cl)c2)nc1C` has a solubility kinetic of 0.0031 mg/mL (≈ 12.3 µM). With `O=C(Nc1ccccc1Br)c1c(F)cccc1Cl` the solubility kinetic was 0.0135 mg/mL (≈ 41.1 µM). `CCN(CC(=O)NCc1ccc(F)cc1)C(=O)c1cc2ccccc2o1` showed a solubility kinetic of 0.0472 mg/mL (≈ 133 µM). In the case of `Cn1c(=O)c([N+](=O)[O-])c(NCCCn2ccnc2)c2ccccc21`, the solubility kinetic is reported as > 0.0491 mg/mL. For `Cn1cnc([N+](=O)[O-])c1SCCO`, the solubility kinetic was > 0.0305 mg/mL. For `COc1ccc(S(=O)(=O)NC(C)C(=O)N2CCCC2)cc1Cl` (stereo not given), the solubility kinetic was 0.047 mg/mL (≈ 136 µM). For `CCCCC(Sc1nc(C)c(Cc2ccccc2)c(=O)[nH]1)C(=O)O` (stereo not given), the solubility kinetic was > 0.052 mg/mL. Compound `COc1ccc(NC(=S)N2CCc3ccccc3C2)cc1OC` has a solubility kinetic of 0.0019 mg/mL (≈ 5.78 µM). `CCc1cc(C(=O)c2ccc(OC)cc2)c(NC(=O)CN2CCCC2)s1` showed a solubility kinetic of 0.0059 mg/mL (≈ 15.8 µM). For `Cc1ccsc1CNCCc1ccccc1F`, the solubility kinetic was 0.0271 mg/mL (≈ 109 µM). With `COc1ccc(OC)c(NC(=O)C2CC2c2ccccc2)c1` (stereo not given) the solubility kinetic was 0.018 mg/mL (≈ 60.5 µM). With `Cc1ccsc1CN(C)CC(=O)Nc1ccccc1C(=O)NC1CC1` the solubility kinetic was > 0.0536 mg/mL. For `COc1ccc(/C=C/C(=O)Nc2ccccc2F)cc1S(=O)(=O)N1CCOCC1`, the solubility kinetic was 0.0375 mg/mL (≈ 89.2 µM). In the case of `COc1nc(-c2cccc([N+](=O)[O-])c2)nc2ccccc12`, the solubility kinetic is reported as < 0.0002 mg/mL. Work on `Cc1cccc(CCNCc2cc3ccc(C)cc3[nH]c2=O)c1` yielded a solubility kinetic of 0.0454 mg/mL (≈ 148 µM). `Cc1ccc(NC(=O)Cc2ccc(Cl)cc2)nc1` showed a solubility kinetic of 0.0285 mg/mL (≈ 109 µM). Work on `CCCOc1ccc(-c2csc3nc[nH]c(=O)c23)cc1` yielded a solubility kinetic of 0.0029 mg/mL (≈ 10.1 µM). With `COC(=O)c1ccc(COc2cccnc2[N+](=O)[O-])cc1` the solubility kinetic was 0.0042 mg/mL (≈ 14.6 µM). Compound `CCOC(=O)CSCc1csc(CC(=O)Nc2ccccc2C)n1` has a solubility kinetic of 0.0524 mg/mL (≈ 144 µM). With `O=C1C2C3C=CC(CC3)C2C(=O)N1c1ccc([N+](=O)[O-])cc1` (stereo not given) the solubility kinetic was 0.0034 mg/mL (≈ 11.4 µM). For `Cc1ccc(NC(=O)c2ccc(Cl)nc2)cc1S(=O)(=O)N1CCOCC1`, the solubility kinetic was 0.0124 mg/mL (≈ 31.3 µM). In the case of `CCCCNC(=O)OCCSCCS(=O)(=O)c1ccc(Cl)cc1`, the solubility kinetic is reported as 0.0009 mg/mL (≈ 2.37 µM). For `CCN(CC(=O)NC1CCCC1)S(=O)(=O)c1ccc(F)cc1`, the solubility kinetic was > 0.0493 mg/mL. `CCOc1ccc(N2CC(C(=O)N3CCCCC3)CC2=O)cc1` (stereo not given) gave a solubility kinetic of 0.0464 mg/mL (≈ 147 µM). `CC(C)c1ccc(OCCCN2CCCC2)cc1` showed a solubility kinetic of 0.0288 mg/mL (≈ 116 µM). Compound `CCOc1cccc(C2CC(=O)Nc3cc(OC)c(OC)cc32)c1` (stereo not given) has a solubility kinetic of 0.0125 mg/mL (≈ 38.2 µM). `CCOC(=O)C1=C(C)NC(=O)CC1c1cc2c(cc1[N+](=O)[O-])OCO2` (stereo not given) gave a solubility kinetic of 0.0033 mg/mL (≈ 9.47 µM). Work on `Nc1ncnc(Nc2cccc(F)c2)n1` yielded a solubility kinetic of 0.0306 mg/mL (≈ 149 µM). Compound `COc1ccc(CCC(=O)NCc2cccc(C(F)(F)F)c2)cc1` has a solubility kinetic of 0.0103 mg/mL (≈ 30.5 µM). Compound `COc1ccc(NC(=O)CCCC(=O)NCCc2ccc(OC)c(OC)c2)cc1` has a solubility kinetic of 0.046 mg/mL (≈ 115 µM). For `O=C(O)CCSC1CC(=O)N(c2ccccc2)C1=O` (stereo not given), the solubility kinetic was > 0.0419 mg/mL. `CC(OC(=O)CCc1c[nH]c2ccccc12)C(=O)c1ccccc1` (stereo not given) gave a solubility kinetic of 0.0127 mg/mL (≈ 39.5 µM). Compound `O=C(Nc1ccc(Cl)cc1)C1CCCC1` has a solubility kinetic of 0.0158 mg/mL (≈ 70.6 µM). With `S=C(Nc1cc(Cl)cc(Cl)c1)N1CCCC1` the solubility kinetic was 0.003 mg/mL (≈ 10.9 µM). With `COC(=O)Cc1c(O)ccn(Cc2ccc(Cl)c(Cl)c2)c1=O` the solubility kinetic was > 0.0513 mg/mL. In the case of `Cc1csc(Nc2ccccc2)[n+]1C.[Br-]`, the solubility kinetic is reported as 0.0302 mg/mL. With `O=C(CSc1ncnc2ccccc12)c1ccco1` the solubility kinetic was > 0.0405 mg/mL. For `Cc1cccc[n+]1CC(=O)c1ccccc1.[Br-]`, the solubility kinetic was > 0.0438 mg/mL. `CCn1c(=O)c2ccccc2n(CC(=O)NC2CCCCC2)c1=O` gave a solubility kinetic of 0.0154 mg/mL (≈ 46.8 µM). In the case of `Cc1cc(NS(C)(=O)=O)c(=O)n(Cc2cccc(F)c2)c1`, the solubility kinetic is reported as > 0.0466 mg/mL. Work on `CCOC(=O)c1cc(C)n(-c2ccccc2)c1C` yielded a solubility kinetic of 0.003 mg/mL (≈ 12.3 µM). In the case of `COc1cccc(Nc2ccc(-n3ccnc3)nn2)c1`, the solubility kinetic is reported as > 0.0401 mg/mL. Compound `O=Cc1c(NCc2ccco2)nc2ccccn2c1=O` has a solubility kinetic of 0.0195 mg/mL (≈ 72.4 µM). With `O=C1CCC(=O)N1CC(=O)N(c1ccccc1)c1ccccc1` the solubility kinetic was 0.0404 mg/mL (≈ 131 µM).

— PubChem BioAssay AID1996
